Data published in patent US20240374797A1, “SYSTEM AND METHOD FOR EXTRACORPOREAL BLOOD TREATMENT” (Gambro Lundia AB, priority 2020, published 2024).

Experiments:
Format in all cases: cell-based, human
[1] = tested on: A172 (glioblastoma); assay: Study 2: CellTiter-Glo cell viability, DMEM without sodium pyruvate; conditions: increase in BOHB concentration (0, 4, 12 mM), 3 d, FIG. 7
Method: (§1) Cell lines established from human colon carcinoma (HCT15, NCI-H508 and COLO205), renal cell carcinoma (769-P, 786-O and RCC4) and glioblastoma (LN-18, A-172 and U-118 MG) were selected for the analysis. All cell lines were obtained from American Type Culture Collection (ATCC, LGC standards, UK) except for RCC4 and HCT15 that was purchased from Sigma-Aldrich (Merck, Germany). In addition, primary human renal cell carcinoma (RCC) cells isolated from patient nephrectomies were included in the study. […]
(§2) Optimal seeding density was determined for each cell line in 96 well plates according to the “Protocol for optimizing cell seeding densities to ensure Log-phase growth”. […] Cover the plate. • Incubate the plate overnight at 37° C., 5% CO2. • Add 50 μL of fresh media to the plate wells to achieve a final volume of 200 μL and incubate for 72 h at 37° C., 5% CO2. • Measure viability using Cell Titer Glo assay according to manufacturer's protocol. • Plot log cell number against luminescence intensity to identify the concentration of cells at which log growth is achieved.
(§3) CellTiter-Glo Luminescent cell viability assay (Promega) was used as a readout of viability.
(§4) For each cell line, optimal number of cells as determined above were seeded into 96-well plates on day 0. […]

[2] = tested on: RCC4 (renal cell carcinoma); assay: as above; conditions: increase in BOHB concentration (0, 4, 12 mM), 3 d, FIG. 7
Method: as §1, §2, §3, §4

[3] = tested on: RCC4 renal carcinoma cell line; assay: Example 2: CellTiter-Glo readout of cell numbers in Medium A-C; conditions: high levels of BOHB or combination of BOHB and Acac, FIG. 16
Method: To study the effect of a nutrient restricted ketogenic environment on cancer cell growth in vitro, three different cell culture media were formulated. Medium A was full RPMI1640 medium that the cell lines routinely are cultured in. Medium B was used as an approximation of the conditions found in normal human serum. The levels of glucose, glutamine, serine, glycine and arginine were adjusted to match normal physiological levels found in human serum. These nutrients were selected based on their reported use as energy source and effects on cancer cell metabolic state. Medium C was used to emulate the ketogenic nutrient restricted Cancer Dialysis condition. […]
All cell lines were purchased from ATCC (ATCC, LGC standards) except for RCC4 that was from Sigma-Aldrich (Merck). […] Optimal seeding density was determined for each cell line in 96-well plates cultured for 3 days in standard cell culture medium. […]
In Medium B, to mimic physiological conditions, the levels of glutamine, serine, glycine, arginine and glucose were set to the median of measured levels in human serum, based on data from the Mayo Clinic Laboratories (https://www.mayocliniclabs.com/test-catalog/Clinical+and+Interpretive/9265). […]
CellTiter-Glo Luminescent cell viability assay (Promega) was used as a readout of cell numbers according to the manufacturers' instructions. […]

[4] = tested on: glioma cell line A172; assay: Example 2: CellTiter-Glo readout of cell numbers, ketones added to Medium A-C; conditions: for growth, repeat experiments 2-6 (inconsistent results): ketone added separately (16 mM BOHB or 8 mM Acac), FIG. 14; for number of cells compared to 8 mM LiCl control: 8 mM Acac
Method: (§5) To study the effect of a nutrient restricted ketogenic environment on cancer cell growth in vitro, three different cell culture media were formulated. Medium A was full RPMI1640 medium that the cell lines routinely are cultured in. Medium B was used as an approximation of the conditions found in normal human serum. The levels of glucose, glutamine, serine, glycine and arginine were adjusted to match normal physiological levels found in human serum. These nutrients were selected based on their reported use as energy source and effects on cancer cell metabolic state. Medium C was used to emulate the ketogenic nutrient restricted Cancer Dialysis condition. Here, the levels of the selected nutrients were reduced to half of the physiological levels in Medium B, and the ketone body BOHB was added.
(§6) Human cancer cell lines are routinely established and cultured at atmospheric oxygen levels (21% O2), yet, the physiological oxygen levels in tissue is considerably lower and varies from 3-13% [Ward, Biochim Biophys Acta 2008; 1777:1-14. Within the tumor microenvironment, the fast growth rate of cancer cells combined with an often malformed and defective vasculature often results in hypoxic regions with oxygen levels ranging from 0-5%. Given the effects of oxygen levels on energy metabolism [Xie et al., J Biol Chem 2017; 292:16825-16832], and to further mimic the physiological conditions in vivo, the growth of the cancer cell lines in Medium A, B and C was studied at both ambient, 21% O2, and at the more physiological 5% O2.
(§7) Cells were maintained in RPMI-1640 medium (31870-025 GIBCO) with the addition of 10% serum, 200 mM L-glutamine and 1% penicillin-streptomycin (PEST) in humidified chambers at 37° C. and 5% CO2. For hypoxic conditions (5% O2), cells were maintained in a Galaxy 14 S CO2 incubator (Eppendorf) where N2 was used to adjust the O2 level to 5%.
(§8) Medium A: RPMI1640 (31870-025, GIBCO) with the addition of 1% PEST, 200 mM L-glutamine and 10% dialyzed serum. Dialyzed serum was used to reduce the amounts of small molecules such as amino acids.
(§9) Medium B and C were prepared from RPMI1640 modified medium powder without L-glutamine, glucose and amino acids (R9010-01, US Biological Life Sciences). For 1 L medium, 7.4 g powder was dissolved in 900 ml sterile water without heating and 2 g sodium bicarbonate was added. Amino acids listed in Table 5 were added to the same concentration as in full RPMI1640 medium (Table 5). After all additions, the medium was sterilized by filtering through 0.22 um membranes and divided into two bottles.
(§10) In Medium B, to mimic physiological conditions, the levels of glutamine, serine, glycine, arginine and glucose were set to the median of measured levels in human serum, based on data from the Mayo Clinic Laboratories (https://www.mayocliniclabs.com/test-catalog/Clinical+and+Interpretive/9265).
(§11) To model Cancer Dialysis conditions in Medium C, the levels of these nutrients were reduced to 50% of the physiological levels. As for Medium A, 1% PEST and 10% dialyzed serum were added to Medium B and C. Sodium pyruvate, that is a common addition in cell culture medium, was not present in any of the used media.
(§12) Stock solutions of DL-β-Hydroxybutyric acid sodium salt (H6501, Sigma Aldrich) and Lithium Acetoacetate (A8509, Sigma Aldrich) were prepared in water, sterile filtered, aliquoted and stored at −20° C. Lithium Chloride (L7026, Sigma Aldrich) was used as a control for the addition of Lithium in the Li-Acac.
(§13) CellTiter-Glo Luminescent cell viability assay (Promega) was used as a readout of cell numbers according to the manufacturers' instructions. In experiments shown in FIG. 12-13, double plates were seeded and treated. One set of plates was used for collection of medium for lactate measurement (see below) and the CellTiterGlo-assay. The other set of plates was frozen at −80° C. at the end of the experiment. […]

[5] = tested on: glioma cell line U118MG; assay: as above; conditions: for growth, repeat experiments 2-6 (inconsistent results): ketone added separately (16 mM BOHB or 8 mM Acac), FIG. 15; for number of cells compared to 8 mM LiCl control: 8 mM Acac
Method: as §5, §6, §7, §8, §9, §10, §11, §12, §13

[6] = Medium C, 16 mM BOHB, at both 21 and 5% O2
[7] = Medium A, both normoxia and hypoxia

Row | Structure (SMILES) | proliferation of cells [1] | proliferation of cells [2] | increased sensitivity to ketones in nutrient restricted Medium C [3] | growth inhibitory effect ([4]; Medium A, 16 mM BOHB alone, both normoxia and hypoxia, FIG. 12) | number of cells, % of the amount in Medium B without BOHB ([4]; Medium B, hypoxic (5% O2), BOHB added (16 mM)) | number of cells, % compared to C-medium without BOHB [4, 6] | growth, repeat experiments 2-6 (inconsistent results) ([4]; Medium C) | growth inhibitory effect ([5]; Medium A, 16 mM BOHB alone, both normoxia and hypoxia, FIG. 13) | number of cells, % compared to C-medium without BOHB [5, 6] | growth, repeat experiments 2-6 (inconsistent results) ([5]; Medium C) | number of cells compared to 8 mM LiCl control [4, 7] | number of cells compared to 8 mM LiCl control ([4]; Medium B, 5% O2) | number of cells compared to 8 mM LiCl control ([4]; Medium B, 21% O2) | amounts of cells compared to 8 mM LiCl control ([4]; Medium C, 8 mM Acac alone) | number of cells compared to 8 mM LiCl control [5, 7] | number of cells compared to 8 mM LiCl control ([5]; Medium B, 5% O2) | number of cells compared to 8 mM LiCl control ([5]; Medium B, 21% O2) | amounts of cells compared to 8 mM LiCl control ([5]; Medium C, 8 mM Acac alone)
1 | CC(O)CC(=O)[O-].[Na+] (racemic) [BOHB, DL-β-Hydroxybutyric acid sodium salt] | suppresses the proliferation of cells | suppresses the proliferation of cells | not found | no growth inhibitory effect | approximately 70% | around 30% | trend of reduced growth | no growth inhibitory effect | around 30% | trend of reduced growth | – | – | – | – | – | – | – | –
2 | CC(=O)CC(=O)[O-].[Li+] [Acac, Lithium Acetoacetate] | – | – | – | – | – | – | trend of reduced growth | – | – | trend of reduced growth | did not reduce the number of cells further | only at 21% O2 | reduced the number of cells significantly | did not significantly reduce the amounts of cells | did not reduce the number of cells further | only at 21% O2 | reduced the number of cells significantly | did not significantly reduce the amounts of cells
